Literature values, collected in patent publication US9078925B2, “Pharmaceutical semi-solid composition of isotretinoin” (GALEPHAR PHARMACEUTICAL RESEARCH, INC., priority 2012, dated 2015).
Where two headings read alike, the source gives them in different places.

Columns and labels:
[1] = not given; remark: listed apart in the source

SMILES: CC1=C(/C=C/C(C)=C/C=C/C(C)=C\C(=O)O)C(C)(C)CCC1 [Isotretinoin, 13-cis retinoic acid]
- bioavailability after an oral intake (fasted conditions): 25%
- bioavailability after an oral intake (fed conditions): 40%
- time to reach steady-state concentrations (of treatment): 1 week
- solubility in water [1]: poorly soluble in water
